Molecular target: T1, Ornithine decarboxylase (ODC) (Rattus norvegicus, UniProt P09057)
T1 construct: is prepared from the livers of rats which have been injected with thioacetamide; from tissue; host or cells: rat liver (thioacetamide-induced)
T1 sequence (P09057 1-461): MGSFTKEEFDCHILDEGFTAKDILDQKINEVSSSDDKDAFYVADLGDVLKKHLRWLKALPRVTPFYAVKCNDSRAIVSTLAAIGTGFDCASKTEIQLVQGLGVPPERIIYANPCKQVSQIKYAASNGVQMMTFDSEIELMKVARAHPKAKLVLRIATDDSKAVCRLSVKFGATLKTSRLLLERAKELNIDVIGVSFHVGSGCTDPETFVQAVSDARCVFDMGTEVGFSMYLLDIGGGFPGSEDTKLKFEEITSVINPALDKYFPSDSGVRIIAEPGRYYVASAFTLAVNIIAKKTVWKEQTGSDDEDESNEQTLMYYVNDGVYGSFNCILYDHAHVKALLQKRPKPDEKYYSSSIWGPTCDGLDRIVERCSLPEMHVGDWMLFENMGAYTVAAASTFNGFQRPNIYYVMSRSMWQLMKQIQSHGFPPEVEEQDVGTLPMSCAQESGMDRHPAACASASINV
Experiment: In vitro time-dependent inhibition of ornithine decarboxylase (14CO2 release from DL-[1-14C]ornithine; Kitz and Wilson analysis)
Format: biochemical, rats
Conditions: calculated by method of Kitz and Wilson; for Ki: apparent dissociation constant, ODC from livers of thioacetamide-treated rats, incubated at 37°; for ODC τ50: half-life at infinite concentration of inhibitor, rat liver ODC, 37°
Protocol: The stock solution of ODC is composed of proteins (16 mg/mL), sodium phosphate buffer (30 mM, pH 7.1), dithiothreitol (5 mM) and pyridoxal phosphate (0.1 mM). The specific activity of this stock solution is 0.12 nmol of CO2/min per mg of protein. For a typical experiment 320 µl of this stock solution is mixed at time 0 with 80 µl of a solution of the inhibitor in water and incubated at 37°. At different times 50 pl aliquots are transferred into a 1 mL assay medium containing sodium phosphate (30 mM, pH 7.1), dithiothreitol (5 mM), pyridoxal phosphate (0.1 mM), L-ornithine (0.081 pmol), and DL-[1-^14C] ornithine (0.043 pmol, 58 Ci/mol, Amersham) in a closed vessel in which a filter paper moistered with 50 µl hyamine hydroxide (1 M) is fitted. The reaction is allowed to proceed for 60 min at 37°C and then terminated by addition of 0.5 ml of 40% trichloroacetic acid. After an additional 30 min, the CO2 absorbed on the filter paper is counted in a standard scintillation cocktail.

Ki	Structure (SMILES)	ODC τ50
53 µM	C=C(CN)CC(N)(CF)C(=O)O (stereo not shown) [D, 2-fluoromethyl-2,5-diamino-4-methylene-pentanoic acid]	3.6 min
	C=C(CN)CC(N)CF (stereo not shown) [B, 1-fluoro-2,5-diamino-4-methylene-pentane]	2.6 min
	C=C(CN)CC(N)C(F)F (stereo not shown) [E, 1,1-difluoro-2,5-diamino-4-methylene-pentane]	2.2 min
	NCC(=O)CC(N)CF (stereo not shown) [C, 1-fluoro-2,5-diamino-4-oxo-pentane]	1.6 min
4.8 µM	NCC(=O)CC(N)(CF)C(=O)O (stereo not shown) [A, 2-fluoromethyl-2,5-diamino-4-oxo-pentanoic acid]	3.1 min
